Results reported in patent US20230104357A1, “Combination of Retromer Pharmacological Chaperones and Exogenous Retromer for the Treatment of Alzheimer's Disease and Other Neurodegenerative Diseases and Disorders” (The Trustees of Columbia University in the City of New York, priority 2020, published 2023).

Tests used:
VPS35 [1] = target: T1, VPS35 (Homo sapiens, UniProt Q96QK1); assay: Western blot of VPS35 protein levels in HECT293T cells after VPS35 plasmid transfection and/or R55; format: cell-based; conditions: 5 μM of R55, Western blot 72 hours after transfection, lanes 7 and 8
T1 construct: expressed in transfected cells; host or cells: HECT293T cells
Protocol: Human HECT293 cells, considered a model for human neurons, were cultured. VPS35 was delivered via plasmid to HECT293T cells under control of the constitutive EF1a promoter. Pharmacological chaperone R55 was administered to the cells as an aqueous solution at concentrations of 5 uM and 50 uM at the time of transfection. Protein levels were assessed by Western blot 72 hours after transfection.
Lipofectamine transfection protocols were used with some modifications. Briefly lipofectamine LTX was used to co-transfect Vps35 and Vps26 (Vps26a or Vps26b) plasmids into the cells in a 6 well format. 100k cells were plated in each well already containing medium with DNA-lipofectamine complexes. Empty chassis and GFP as were used as control plasmids. Amount of DNA copies introduced per well was 2.81 E+11. Cells were harvested 48 hours after transfection using RIPA buffer as described previously (Qureshi et al. 2019).
Cells were lysed in RIPA and protein were isolated as described previously (Qureshi et al. 2019; Kirby et al. 2015). Lysates from the samples were run on NuPAGE® Bis-Tris 4-12% gels, transferred onto nitrocellulose membranes using iblot and were probed with antibodies.
A primary antibody targeting VPS35 was used (ab57632, Abcam, 1:1k). Western blots were scanned using the Odyssey imaging system as described previously (Eaton et al. 2013). […]

[2] = target: purified, reconstituted heterotrimeric complex (Homo sapiens, UniProt Q96QK1+Q9UBQ0); conditions: various concentrations; Mecozzi et al. 2014; cited from earlier work
VPS35 [3] = target: T2, VPS35 (Mus musculus, UniProt Q9EQH3); conditions: cultured primary neurons; Mecozzi et al. 2014; cited from earlier work
T2 construct: cultured primary neurons; endogenous in cells; host or cells: cultured primary neurons

VPS26 = conditions: cultured primary neurons; Mecozzi et al. 2014; cited from earlier work

increase on endogenous VPS35 protein levels (VPS35 [1]): about 50%
SMILES: [H]/N=C(\N)SCc1ccc(CS/C(N)=N/[H])s1 [R55]
thermal stability (denaturation temperature of the complex) [2]: improved thermal stability significantly | VPS35 protein levels (VPS35 [3]): increased | VPS26 protein levels (VPS26): increased
